Test results from paper PMC9906736, “Sodium-Dependent Neutral Amino Acid Transporter 2 Can Serve as a Tertiary Carrier for L-Type Amino Acid Transporter 1-Utilizing Prodrugs” (Molecular Pharmaceutics, 2023).
“Also recorded” adds a separate entry of the source.

Tested on: MCF-7 cells
Test: Concentration-dependent cellular uptake into MCF-7 cells at various pH, with and without Na+
Format: cell-based, human
Details: 1–200 μM, 30 min
Procedure: MCF-7 human breast adenocarcinoma cells (HTB-22) were purchased from the American Type Culture Collection (ATCC, Manassas, VA, USA). MCF-7 cells were cultured in Dulbecco’s modified Eagle’s medium supplemented with L-glutamine (2.0 mM), heat-inactivated fetal bovine serum (10%), and penicillin (50 U/mL)–streptomycin (50 μg/mL) solution. MCF-7 cells (passages 8–25) were seeded at the density of 1 × 10^5 cells/well onto 24-well plates. The cells were used for the uptake experiments 1 day after seeding. All the studies were carried out as three biological replicates from the same cell passage.
For the following experiments, the MCF-7 cells were cultured, seeded, washed with HBSS, and preincubated as described above at the desired conditions (pH 5.5, 7.4, or 8.5, with and without Na^+). […] Subsequently, the cells were washed three times with ice-cold HBSS and lysed with 500 μL of 0.1 M NaOH (60 min). […] The cell-associated concentrations of each compound normalized to protein concentration were calculated from the standard curve that was prepared by spiking known concentrations of compounds to ACN including the selected internal standard (diclofenac to all studied compounds). The protein concentrations on each plate were determined as a mean of three samples by Bio-Rad Protein Assay based on the Bradford dye-binding method using BSA as a standard protein and measuring the absorbance (595 nm) by a multiplate reader (EnVision, PerkinElmer, Inc., Waltham, MA, USA).

Structure (SMILES) | cellular uptake at pH 8.5 compared to pH 7.4 | cellular uptake at pH 5.5 compared to pH 7.4
COc1cc(/C=C/C(=O)NCc2cccc(C[C@H](N)C(=O)O)c2)ccc1O [Compound 8] | much higher | 
N[C@@H](Cc1c[nH]c2ccccc12)C(=O)O [L-Trp, reference compound] | did not affect | did not affect
N[C@@H](Cc1cccc(C(=O)OCc2ccc(-c3ccc(-c4ccc5c(c4)COC5=O)s3)cc2)c1)C(=O)O [Compound 1] | much higher | 
N[C@@H](Cc1cc(I)c(Oc2cc(I)c(O)c(I)c2)c(I)c1)C(=O)O [T4, thyroxin, reference compound] | decreased | increased
CC(C(=O)NCCCC[C@H](N)C(=O)O)c1cccc(C(=O)c2ccccc2)c1 (some centres unmarked) [Compound 5] | much higher | 
COc1cc(/C=C/C(=O)Nc2cccc(C[C@H](N)C(=O)O)c2)ccc1O [Compound 7] | much higher | 

Same assay, conditions: 1–200 μM, 30 min, compared to presence of Na+

Structure (SMILES) | cellular uptake at pH 8.5 in the absence of Na+
COc1cc(/C=C/C(=O)NCc2cccc(C[C@H](N)C(=O)O)c2)ccc1O [Compound 8] | sodium-sensitive
N[C@@H](Cc1c[nH]c2ccccc12)C(=O)O [L-Trp, reference compound] | did not affect
N[C@@H](Cc1cccc(C(=O)OCc2ccc(-c3ccc(-c4ccc5c(c4)COC5=O)s3)cc2)c1)C(=O)O [Compound 1] | decreased; also recorded: sodium-sensitive
CC(C(=O)NCCCC[C@H](N)C(=O)O)c1cccc(C(=O)c2ccccc2)c1 (some centres unmarked) [Compound 5] | sodium-sensitive
COc1cc(/C=C/C(=O)Nc2cccc(C[C@H](N)C(=O)O)c2)ccc1O [Compound 7] | sodium-sensitive

Same assay, conditions: pH 5.5

Structure (SMILES) | Vmax of cellular uptake [nmol/min/mg protein]
N[C@@H](Cc1cccc(C(=O)OCc2ccc(-c3ccc(-c4ccc5c(c4)COC5=O)s3)cc2)c1)C(=O)O [Compound 1] | 29

Same assay, conditions: pH 8.5, read-out: Km(uM)@pH8.5

Structure (SMILES) | Km [µM]
COc1cc(/C=C/C(=O)NCc2cccc(C[C@H](N)C(=O)O)c2)ccc1O [Compound 8] | 225
N[C@@H](Cc1cccc(C(=O)OCc2ccc(-c3ccc(-c4ccc5c(c4)COC5=O)s3)cc2)c1)C(=O)O [Compound 1] | 412
CC(C(=O)NCCCC[C@H](N)C(=O)O)c1cccc(C(=O)c2ccccc2)c1 (some centres unmarked) [Compound 5] | 102
COc1cc(/C=C/C(=O)Nc2cccc(C[C@H](N)C(=O)O)c2)ccc1O [Compound 7] | 184

Same assay, conditions: ratio of Vmax

Structure (SMILES) | cellular uptake, times higher at pH 5.5 compared to pH 7.4 [times] | cellular uptake, times higher at pH 8.5 compared to pH 7.4 [times]
N[C@@H](Cc1cccc(C(=O)OCc2ccc(-c3ccc(-c4ccc5c(c4)COC5=O)s3)cc2)c1)C(=O)O [Compound 1] | 3.9 | 9.3

Tested on: SNATs
Test: Competitive cellular uptake in the presence of unselective SNAT ligand MeAIB in MCF-7 cells
Format: cell-based, human
Details: 100 μM compound, 100 μM MeAIB, pH 7.4 or 8.5, 30 min
Procedure: The competitive uptake in the presence of unselective SNAT ligand, MeAIB (100 μM),[31],[32] was carried out as described above with HBSS buffer at pH 7.4 or pH 8.5 containing 100 μM of the studied compound. The cells were preincubated with the inhibitors for 10 min, and the incubation mixture was removed before adding the studied compound and the inhibitor to the cells. The competitive uptake (30 min) with the inhibitor was then carried out as the normal uptake described above. The concentrations of studied compounds were analyzed by the LC–MS/MS method and calculated from the spiked standard curve and normalized with the protein concentrations.

Structure (SMILES) | cellular uptake in the presence of MeAIB
COc1cc(/C=C/C(=O)NCc2cccc(C[C@H](N)C(=O)O)c2)ccc1O [Compound 8] | decreased
N[C@@H](Cc1c[nH]c2ccccc12)C(=O)O [L-Trp, reference compound] | did not affect
N[C@@H](Cc1cccc(C(=O)OCc2ccc(-c3ccc(-c4ccc5c(c4)COC5=O)s3)cc2)c1)C(=O)O [Compound 1] | decreased
N[C@@H](Cc1cc(I)c(Oc2cc(I)c(O)c(I)c2)c(I)c1)C(=O)O [T4, thyroxin, reference compound] | decreased
CC(C(=O)NCCCC[C@H](N)C(=O)O)c1cccc(C(=O)c2ccccc2)c1 (some centres unmarked) [Compound 5] | decreased
COc1cc(/C=C/C(=O)Nc2cccc(C[C@H](N)C(=O)O)c2)ccc1O [Compound 7] | decreased

Tested on: LAT1
Test: not given
Details: ability to compete with natural LAT1-substrate L-Leu; read-out: IC50 (μM) of [^14C]-L-Leu Uptake; cited from earlier work

Structure (SMILES) | IC50 [µM]
COc1cc(/C=C/C(=O)NCc2cccc(C[C@H](N)C(=O)O)c2)ccc1O [Compound 8] | 14.2 ± 0.91
N[C@@H](Cc1c[nH]c2ccccc12)C(=O)O [L-Trp, reference compound] | 50.5 ± 2.63
N[C@@H](Cc1cccc(C(=O)OCc2ccc(-c3ccc(-c4ccc5c(c4)COC5=O)s3)cc2)c1)C(=O)O [Compound 1] | 1.54 ± 0.05
N[C@@H](Cc1cc(I)c(Oc2cc(I)c(O)c(I)c2)c(I)c1)C(=O)O [T4, thyroxin, reference compound] | 18 ± 1.41
CC(C(=O)NCCCC[C@H](N)C(=O)O)c1cccc(C(=O)c2ccccc2)c1 (some centres unmarked) [Compound 5] | 82.7 ± 1.45
COc1cc(/C=C/C(=O)Nc2cccc(C[C@H](N)C(=O)O)c2)ccc1O [Compound 7] | 1.1 ± 0.08

Tested on: LAT1
Test: not given
Parameters: unit not given here
Details: CLint = Vmax/Km; cited from earlier work

Structure (SMILES) | Intrinsic Clearance (CLint) of LAT1-mediated uptake
COc1cc(/C=C/C(=O)NCc2cccc(C[C@H](N)C(=O)O)c2)ccc1O [Compound 8] | 0.3
N[C@@H](Cc1c[nH]c2ccccc12)C(=O)O [L-Trp, reference compound] | 146
N[C@@H](Cc1cccc(C(=O)OCc2ccc(-c3ccc(-c4ccc5c(c4)COC5=O)s3)cc2)c1)C(=O)O [Compound 1] | 47.1
N[C@@H](Cc1cc(I)c(Oc2cc(I)c(O)c(I)c2)c(I)c1)C(=O)O [T4, thyroxin, reference compound] | 5.5
CC(C(=O)NCCCC[C@H](N)C(=O)O)c1cccc(C(=O)c2ccccc2)c1 (some centres unmarked) [Compound 5] | 1.3

Tested on: not given
Test: not given
Details: brain accumulation; cited from earlier work

Structure (SMILES) | in vivo Kp values (AUCbrain/ AUCplasma)
COc1cc(/C=C/C(=O)NCc2cccc(C[C@H](N)C(=O)O)c2)ccc1O [Compound 8] | 0.052
N[C@@H](Cc1cccc(C(=O)OCc2ccc(-c3ccc(-c4ccc5c(c4)COC5=O)s3)cc2)c1)C(=O)O [Compound 1] | 0.043
CC(C(=O)NCCCC[C@H](N)C(=O)O)c1cccc(C(=O)c2ccccc2)c1 (some centres unmarked) [Compound 5] | 0.022
COc1cc(/C=C/C(=O)Nc2cccc(C[C@H](N)C(=O)O)c2)ccc1O [Compound 7] | 0.082
